Experimental data reported in US10358463B2, “Immunomodulators” (BRISTOL-MYERS SQUIBB COMPANY, priority 2016, dated 2019).
Numbered stars: 1 amine (or outer) side, 2 acyl side, 3 side chain; on linkers, the order of the positions; unused ones are H or OH. Bridge positions count the residues as written; N and C are the ends. Square brackets hold non-standard residues; d marks the D form. Peptide text beside a SMILES is read from it. ξ: configuration not given here. Trp(1-CH2CONHSO2Me) = CS(=O)(=O)NC(=O)Cn1cc(C[C@H](N)C(=O)O)c2ccccc21; X14 = C[C@H](C(=O)O)n1c(=O)n(C[C@H](N[*:1])C(=O)[*:2])c2ccccc21; Trp(7-aza,1-CH2COOH) = N[C@@H](Cc1cn(CC(=O)O)c2ncccc12)C(=O)O; X1 = O=C(O)Cn1c(C(=O)O)c(C[C@H](N[*:1])C(=O)[*:2])c2ccccc21; X10 = COc1ccc2c(c1)c(C[C@H](N[*:1])C(=O)[*:2])cn2CC(=O)O; X18 = O=C(O)Cn1c(=O)n(C[C@H](N[*:1])C(=O)[*:2])c2ccccc21; Ala(4-isoquinolinyl) = N[C@@H](Cc1cncc2ccccc12)C(=O)O; Trp(5-CN) = N#Cc1ccc2[nH]cc(C[C@H](N)C(=O)O)c2c1; X15 = O=C([C@H](Cc1n[nH]c2ccccc12)N[*:1])[*:2]; X16 = O=C([C@H](Cc1cccc2ccncc12)N[*:1])[*:2]; Phe(4-Cl) = N[C@@H](Cc1ccc(Cl)cc1)C(=O)O; Phe(4-F) = N[C@@H](Cc1ccc(F)cc1)C(=O)O; Hyp = O=C(O)[C@@H]1C[C@@H](O)CN1; NMeNle = CCCC[C@H](NC)C(=O)O; Pen = CC(C)(S)[C@H](N)C(=O)O; Pip = O=C(O)[C@@H]1CCCCN1; NMeA = CN[C@@H](C)C(=O)O; Dab = NCC[C@H](N)C(=O)O; Dap = NC[C@H](N)C(=O)O; ξP = O=C(O)C1CCCN1

Target: T1, PD-1-Ig binding to PD-L1-TVMV-His (PD-L1-His) (Homo sapiens, UniProt Q9NZQ7)
T1 construct: hPDL1 (19-239)-TVMV-His; TVMV protease cleavage site (C); made in house; host or cells: HEK293T cells
T1 sequence (Q9NZQ7 with tags, fused parts or gaps): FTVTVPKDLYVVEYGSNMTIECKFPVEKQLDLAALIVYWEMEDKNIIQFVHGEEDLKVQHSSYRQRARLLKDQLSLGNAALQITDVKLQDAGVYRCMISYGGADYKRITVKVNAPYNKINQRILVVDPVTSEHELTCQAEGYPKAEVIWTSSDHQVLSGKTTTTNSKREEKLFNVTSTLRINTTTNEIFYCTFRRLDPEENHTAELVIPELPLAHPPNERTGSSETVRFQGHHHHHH
Experiment: PD-1/PD-L1 Homogenous Time-Resolved Fluorescence (HTRF) binding assay
Conditions: PD-1-Ig (20 nM)/PD-L1-His (10 nM); range class
Excerpt: The ability of the macrocyclic peptides of the present disclosure to bind to PD-L1 was investigated using a PD-1/PD-L1 Homogenous Time-Resolved Fluorescence (HTRF) binding assay.
Homogenous Time-Resolved Fluorescence (HTRF) Assays of Binding of Soluble PD-1 to Soluble PD-L1. Soluble PD-1 and soluble PD-L1 refers to proteins with carboxyl-end truncations that remove the transmembrane-spanning regions and are fused to heterologous sequences, specifically the Fc portion of the human immunoglobuling G sequence (Ig) or the hexahistidine epitope tag (His). All binding studies were performed in an HTRF assay buffer consisting of dPBS supplemented with 0.1% (w/v) bovine serum albumin and 0.05% (v/v) Tween-20. For the PD-1-Ig/PD-L1-His binding assay, inhibitors were pre-incubated with PD-L1-His (10 nM final) for 15 m in 4 μl of assay buffer, followed by addition of PD-1-Ig (20 nM final) in 1 μl of assay buffer and further incubation for 15 m. PD-L1 fusion proteins from either human, cynomologous macaques, mouse, or other species were used. HTRF detection was achieved using europium crypate-labeled anti-Ig monoclonal antibody (1 nM final) and allophycocyanin (APC) labeled anti-His monoclonal antibody (20 nM final). Antibodies were diluted in HTRF detection buffer and 5 μl was dispensed on top of binding reaction. The reaction was allowed to equilibrate for 30 minutes and signal (665 nm/620 nm ratio) was obtained using an EnVision fluorometer. Additional binding assays were established between PD-1-Ig/PD-L2-His (20 and 5 nM, respectively), CD80-His/PD-L1-Ig (100 and 10 nM, respectively) and CD80-His/CTLA4-Ig (10 and 5 nM, respectively). Binding/competition studies between biotinylated Compound No. 71 and human PD-L1-His were performed as follows. Macrocyclic peptide inhibitors were pre-incubated with PD-L1-His (10 nM final) for 60 minutes in 4 μl of assay buffer followed by addition of biotinylated Compound No. 71 (0.5 nM final) in 1 μl of assay buffer. Binding was allowed to equilibrate for 30 minutes followed by addition of europium crylated labeled Streptavidin (2.5 pM final) and APC-labeled anti-His (20 nM final) in 5 μl of HTRF buffer. The reaction was allowed to equilibrate for 30 m and signal (665 nm/620 nm ratio) was obtained using an EnVision fluorometer.
Recombinant Proteins. Carboxyl-truncated human PD-1 (amino acids 25-167) with a C-terminal human Ig epitope tag [hPD-1 (25-167)-3S-IG] and human PD-L1 (amino acids 18-239) with a C-terminal His epitope tag [hPD-L1(19-239)-tobacco vein mottling virus protease cleavage site (TVMV)-His] were expressed in HEK293T cells and purified sequentially by recombinant Protein A affinity chromatography and size exclusion chromatography. Human PD-L2-His (Sino Biologicals), CD80-His (Sino Biologicals), CTLA4-Ig (RnD Systems) were all obtained through commercial sources.

| SMILES | IC50 |
| --- | --- |
| CCCC[C@H]1C(=O)N(C)[C@@H](CCCC)C(=O)N[C@@H](CC(C)C)C(=O)N[C@H](C(N)=O)C(C)(C)SCC(=O)N[C@@H](Cc2ccc(O)cc2)C(=O)N2CCCC[C@H]2C(=O)N[C@@H](CC(=O)O)C(=O)N2CCC[C@H]2C(=O)N[C@@H](CN)C(=O)N[C@@H](CCC(=O)O)C(=O)N2C[C@H](O)C[C@H]2C(=O)N[C@@H](Cc2c[nH]c3ccccc23)C(=O)N[C@@H](CCN)C(=O)N[C@@H](Cc2cn(CC(=O)NS(C)(=O)=O)c3ccccc23)C(=O)N1C [Example 1011] ({CH2CO}-Y[Pip]DP[Dap]E[Hyp]W[Dab][Trp(1-CH2CONHSO2Me)][NMeNle][NMeNle]L[Pen]-NH2; thioether N-14) | 1 to 9.9 nM |
| CCCC[C@H]1C(=O)N(C)[C@@H](CCCC)C(=O)N[C@@H](CCCNC(=N)N)C(=O)N[C@H](C(=O)NCC(N)=O)CSCC(=O)N[C@@H](Cc2ccc(O)cc2)C(=O)N(C)[C@@H](C)C(=O)N[C@@H](CC(N)=O)C(=O)N2CCC[C@H]2C(=O)N[C@@H](Cc2cnc[nH]2)C(=O)N[C@@H](CC(C)C)C(=O)N2C[C@H](O)C[C@H]2C(=O)N[C@@H](Cc2c[nH]c3ccccc23)C(=O)N[C@@H](CO)C(=O)N[C@@H](Cc2cncc3ccccc23)C(=O)N1C [Example 1254] ({CH2CO}-Y[NMeA]NPHL[Hyp]WS[Ala(4-isoquinolinyl)][NMeNle][NMeNle]RCG-NH2; thioether N-14) | 10 to 99 nM |
| CCCC[C@H]1C(=O)N(C)[C@@H](CCCC)C(=O)N[C@@H](C)C(=O)N[C@H](C(=O)NCC(N)=O)CSCC(=O)N[C@@H](Cc2ccc(O)cc2)C(=O)N(C)[C@@H](C)C(=O)N[C@@H](CC(N)=O)C(=O)N2CCCC2C(=O)N[C@@H](Cc2cnc[nH]2)C(=O)N[C@@H](CCC(N)=O)C(=O)N2C[C@H](O)C[C@H]2C(=O)N[C@@H](Cc2c[nH]c3ccccc23)C(=O)N[C@@H](CO)C(=O)N[C@@H](Cc2n[nH]c3ccccc23)C(=O)N1C (stereo partly drawn) [Example 1286] ({CH2CO}-Y[NMeA]N[ξP]HQ[Hyp]WS[X15][NMeNle][NMeNle]ACG-NH2; thioether N-14) | 100 to 990 nM |
| CCCC[C@H]1C(=O)N(C)[C@@H](CCCC)C(=O)N[C@@H](CC(C)C)C(=O)N[C@H](C(=O)NCC(N)=O)CSCC(=O)N[C@@H](Cc2ccc(O)cc2)C(=O)N(C)[C@@H](C)C(=O)N[C@@H](CC(N)=O)C(=O)N2CCC[C@H]2C(=O)N[C@@H](CN)C(=O)N[C@@H](CC(C)C)C(=O)N2C[C@H](O)C[C@H]2C(=O)N[C@@H](Cc2c[nH]c3ccccc23)C(=O)N[C@@H](CCN)C(=O)N[C@@H](Cc2cn(CC(=O)O)c3ccc(OC)cc23)C(=O)N1C [Example 10506] ({CH2CO}-Y[NMeA]NP[Dap]L[Hyp]W[Dab][X10][NMeNle][NMeNle]LCG-NH2; thioether N-14) | 1 to 9.9 nM |
| CCCC[C@H]1C(=O)N(C)[C@@H](CCCC)C(=O)N[C@@H](CC(C)C)C(=O)N[C@H](C(N)=O)C(C)(C)SCC(=O)N[C@@H](Cc2ccc(Cl)cc2)C(=O)N2CCCC[C@H]2C(=O)N[C@@H](CC(=O)O)C(=O)N2CCC[C@H]2C(=O)N[C@@H](Cc2cnc[nH]2)C(=O)N[C@@H](CCC(=O)O)C(=O)N2C[C@H](O)C[C@H]2C(=O)N[C@@H](Cc2c[nH]c3ccccc23)C(=O)N[C@@H](CCN)C(=O)N[C@@H](Cc2cn(CC(=O)NS(C)(=O)=O)c3ccccc23)C(=O)N1C [Example 1008] ({CH2CO}-[Phe(4-Cl)][Pip]DPHE[Hyp]W[Dab][Trp(1-CH2CONHSO2Me)][NMeNle][NMeNle]L[Pen]-NH2; thioether N-14) | 1 to 9.9 nM |
| CCCC[C@H]1C(=O)N(C)[C@@H](CCCC)C(=O)N[C@@H](C)C(=O)N[C@H](C(=O)NCC(N)=O)CSCC(=O)N[C@@H](Cc2ccc(O)cc2)C(=O)N(C)[C@@H](C)C(=O)N[C@@H](CC(N)=O)C(=O)N2CCC[C@H]2C(=O)N[C@@H](Cc2cnc[nH]2)C(=O)N[C@@H](CCC(N)=O)C(=O)N2C[C@H](O)C[C@H]2C(=O)N[C@@H](Cc2c[nH]c3ccccc23)C(=O)N[C@@H](CO)C(=O)N[C@@H](Cc2cccc3ccncc23)C(=O)N1C [Example 1271] ({CH2CO}-Y[NMeA]NPHQ[Hyp]WS[X16][NMeNle][NMeNle]ACG-NH2; thioether N-14) | 10 to 99 nM |
| CCCC[C@H]1C(=O)N(C)[C@@H](CCCC)C(=O)N[C@@H](CC(C)C)C(=O)N[C@H](C(N)=O)C(C)(C)SCC(=O)N[C@@H](Cc2ccc(F)cc2)C(=O)N2CCCC[C@H]2C(=O)N[C@@H](CC(=O)O)C(=O)N2CCC[C@H]2C(=O)N[C@@H](CN)C(=O)N[C@@H](CCC(=O)O)C(=O)N2C[C@H](O)C[C@H]2C(=O)N[C@@H](Cc2c[nH]c3ccccc23)C(=O)N[C@@H](CCN)C(=O)N[C@@H](Cc2cn(CC(=O)NS(C)(=O)=O)c3ccccc23)C(=O)N1C [Example 1003] ({CH2CO}-[Phe(4-F)][Pip]DP[Dap]E[Hyp]W[Dab][Trp(1-CH2CONHSO2Me)][NMeNle][NMeNle]L[Pen]-NH2; thioether N-14) | 1 to 9.9 nM |
| CCCC[C@H]1C(=O)N(C)[C@@H](CCCC)C(=O)N[C@@H](C)C(=O)N[C@H](C(=O)NCC(N)=O)CSCC(=O)N[C@@H](Cc2ccc(O)cc2)C(=O)N(C)[C@@H](C)C(=O)N[C@@H](CC(N)=O)C(=O)N2CCCC2C(=O)N[C@@H](Cc2cnc[nH]2)C(=O)N[C@@H](CCC(N)=O)C(=O)N2C[C@H](O)C[C@H]2C(=O)N[C@@H](Cc2c[nH]c3ccccc23)C(=O)N[C@@H](CO)C(=O)N[C@@H](Cc2c[nH]c3ccc(C#N)cc23)C(=O)N1C (stereo partly drawn) [Example 1284] ({CH2CO}-Y[NMeA]N[ξP]HQ[Hyp]WS[Trp(5-CN)][NMeNle][NMeNle]ACG-NH2; thioether N-14) | 100 to 990 nM |
| CCCC[C@H]1C(=O)N(C)[C@@H](CCCC)C(=O)N[C@@H](CC(C)C)C(=O)N[C@H](C(=O)NCC(N)=O)CSCC(=O)N[C@@H](Cc2ccc(O)cc2)C(=O)N(C)[C@@H](C)C(=O)N[C@@H](CC(N)=O)C(=O)N2CCC[C@H]2C(=O)N[C@@H](CN)C(=O)N[C@@H](CC(C)C)C(=O)N2C[C@H](O)C[C@H]2C(=O)N[C@@H](Cc2c[nH]c3ccccc23)C(=O)N[C@@H](CCN)C(=O)N[C@@H](Cn2c(=O)n([C@H](C)C(=O)O)c3ccccc32)C(=O)N1C [Example 1014] ({CH2CO}-Y[NMeA]NP[Dap]L[Hyp]W[Dab][X14][NMeNle][NMeNle]LCG-NH2; thioether N-14) | 1 to 9.9 nM |
| CCCC[C@H]1C(=O)N(C)[C@@H](CCCC)C(=O)N[C@@H](CC(C)C)C(=O)N[C@H](C(=O)NCC(N)=O)CSCC(=O)N[C@@H](Cc2ccc(O)cc2)C(=O)N(C)[C@@H](C)C(=O)N[C@@H](CC(N)=O)C(=O)N2CCC[C@H]2C(=O)N[C@@H](CN)C(=O)N[C@@H](CC(C)C)C(=O)N2C[C@H](O)C[C@H]2C(=O)N[C@@H](Cc2c[nH]c3ccccc23)C(=O)N[C@@H](CCN)C(=O)N[C@@H](Cc2cn(CC(=O)O)c3ncccc23)C(=O)N1C [Example 10505] ({CH2CO}-Y[NMeA]NP[Dap]L[Hyp]W[Dab][Trp(7-aza,1-CH2COOH)][NMeNle][NMeNle]LCG-NH2; thioether N-14) | 10 to 99 nM |
| CCCC[C@H]1C(=O)N(C)[C@@H](CCCC)C(=O)N[C@@H](CC(C)C)C(=O)N[C@H](C(=O)NCC(N)=O)CSCC(=O)N[C@@H](Cc2ccc(O)cc2)C(=O)N(C)[C@@H](C)C(=O)N[C@@H](CC(N)=O)C(=O)N2CCC[C@H]2C(=O)N[C@@H](CN)C(=O)N[C@@H](CC(C)C)C(=O)N2C[C@H](O)C[C@H]2C(=O)N[C@@H](Cc2c[nH]c3ccccc23)C(=O)N[C@@H](CCN)C(=O)N[C@@H](Cc2c(C(=O)O)n(CC(=O)O)c3ccccc23)C(=O)N1C [Example 1013] ({CH2CO}-Y[NMeA]NP[Dap]L[Hyp]W[Dab][X1][NMeNle][NMeNle]LCG-NH2; thioether N-14) | 10 to 99 nM |
| CCCC[C@H]1C(=O)N(C)[C@@H](CCCC)C(=O)N[C@@H](CC(C)C)C(=O)N[C@H](C(=O)NCC(N)=O)CSCC(=O)N[C@@H](Cc2ccc(O)cc2)C(=O)N(C)[C@@H](C)C(=O)N[C@@H](CC(N)=O)C(=O)N2CCC[C@H]2C(=O)N[C@@H](CN)C(=O)N[C@@H](CC(C)C)C(=O)N2C[C@H](O)C[C@H]2C(=O)N[C@@H](Cc2c[nH]c3ccccc23)C(=O)N[C@@H](CCN)C(=O)N[C@@H](Cn2c(=O)n(CC(=O)O)c3ccccc32)C(=O)N1C [Example 1015] ({CH2CO}-Y[NMeA]NP[Dap]L[Hyp]W[Dab][X18][NMeNle][NMeNle]LCG-NH2; thioether N-14) | 1 to 9.9 nM |
